According to patent US20250282757A1, “ARYL ETHER-SUBSTITUTED HETEROCYCLIC COMPOUNDS AS GLP1R AGONISTS” (MINDRANK AI LTD., priority 2021, published 2025):

Experiments:
[1] = biological target: GLP-1R (Homo sapiens, UniProt P43220); experiment: Agonist activity on GLP-1R, HTRF cAMP detection in stably transfected GLP-1R/HEK293 cells; type: cell-based; conditions: for EC50: 30 min incubation; for Max activity: relative to top concentration of reference GLP-1(7-37)
[2] = Pharmacokinetic study in mice; type: in vivo, CD-1 mice; conditions: for clearance rate compared with PF-06882961 / exposure compared with PF-06882961: mice; for half-life: read-out: T½ (converted); for Vd: read-out: Vdss
Experimental: The pharmacokinetic properties of some compounds of the present invention were evaluated in mice pharmacokinetic experiments. SPF male CD-1 mice from Beijing Vital River Laboratory Animal Technology Co., Ltd were used with 6 mice in each group. Compounds were dissolved in 10% solutol/90% saline. A single intravenous administration was given at a dose of 1 mg/kg in a volume of 1 mL/kg. A single intragastric administration was given at a dose of 5 mg/kg in a volume of 1 mL/kg. Animals were fasted overnight prior to the administration and resumed feeding 4 hours after administration, ad libitum to water. Blood was collected at 0.0830, 0.25, 0.5, 1, 2, 4, 6, 8 and 24 hours after dosing. About […] of whole blood was collected from the saphenous vein of animals and placed in an EDTA-K2 anticoagulation tube. The samples were centrifuged at 4° C. and 4200 rpm for 5 min, and the plasma was transferred into a centrifuge tube and stored at −80° C. until analysis. For plasma sample analysis, the test compounds and internal standards (Labetalol & tolbutamide & Verapamil & dexamethasone & glyburide & Celecoxib) were extracted from mice plasma by protein precipitation method with acetonitrile, and the extracts were analyzed by LC/MS/MS. The measured plasma concentration-time data of individual animals were analyzed with the non-compartmental model of Phoenix WinNonlin 7.0 (Pharsight, USA) software, and the pharmacokinetic parameters of mice were obtained as follows: maximum (peak) plasma drug concentration Cmax; Peak time Tmax; half-life T1/2 and area under the plasma concentration-time curve extrapolated to infinity AUC0-inf.

[3] = Pharmacokinetic study in monkeys; type: in vivo, cynomolgus monkeys; conditions: for half-life: read-out: T½ (converted); for Vd: read-out: Vdss; for clearance rate compared with PF-06882961 / exposure compared with PF-06882961 / half-life compared with PF-06882961: monkeys
Experimental: The pharmacokinetic properties of compounds of the present invention were evaluated in monkey pharmacokinetic experiments with 3 male Non-naive cynomolgus monkeys per group. Compounds were dissolved in 10% solutol/90% saline. For single intravenous administration, the dose was 1 mg/kg, and the administration volume was 1 mL/kg. For single intragastric administration, the dose was 5 mg/kg, and the administration volume was 1 mL/kg. Animals were fasted overnight with free water before the experiment and resumed feeding 4 hours after administration. Blood was collected at 0.0830, 0.25, 0.5, 1, 2, 4, 6, 8 and 24 hours after dosing. About 0.4 mL of whole blood was collected from the animal's forearm vein and placed in an EDTA-K2 anticoagulant tube. The samples were centrifuged at 4° C. and 4200 rpm for 5 min, and the plasma was transferred to a centrifuge tube and stored at −80° C. until analysis. For plasma sample analysis, the test compounds and internal standards (Labetalol & tolbutamide & Verapamil & dexamethasone & glyburide & Celecoxib) were extracted from monkey plasma by protein precipitation method with acetonitrile, and the extracts were analyzed by LC/MS/MS. Measured plasma concentration-time data in individual animals were analyzed using the non-compartmental model of Phoenix WinNonlin 7.0 (Pharsight, USA) software to obtain the following pharmacokinetic parameters: maximum (peak) plasma drug concentration Cmax; time to peak Tmax; Half-life T1/2 and area under the plasma concentration-time curve extrapolated to infinity AUC0-inf.

[4] = system: cynomolgus monkeys; experiment: Intravenous glucose tolerance (IVGTT) experiment in cynomolgus monkey; type: in vivo; conditions: for effect on blood glucose compared with PF-06882961: 100 mg/kg po, IVGTT
Experimental: The compounds were dissolved in 10% Solutol HS15+90% Saline by vortex ultrasound. Vehicle was 10% Solutol HS15+90% Saline.
Male cynomolgus monkeys, 10-15 years old, weighing 6-13 kg. Healthy animals were selected for efficacy studies according to alanine aminotransferase (ALT), aspartate aminotransferase (AST), triglyceride (TG), total cholesterol (TC), high density lipoprotein (HDL), low density lipoprotein (LDL), glycosylated hemoglobin (HbA1c), body weight (BW).
After 1 week of acclimation, the IVGTT baseline before administration was measured, and the animals were grouped according to the insulin and blood glucose results of the IVGTT. The detailed information of treatment was as follows:
IVGTT was started after 2 hours post of compound dosing. Blood were collected-at −15 min, 0 min (before sugar administration), and 2, 5, 7, 10, 20, and 30 min after sugar administration. And the blood glucose level were measured.
Data was analyzed by Graphpad Prism 6 and the statistical method was one-way ANOVA Dunnett's test. Compared with the vehicle group, p<0.05 was considered significant difference. * means p<0.05, ** means p<0.01, *** means p<0.001.

[5] = system: h-GLP1-R C57BL6J mice; experiment: Intraperitoneal glucose tolerance (IPGTT) test in h-GLP1-R C57BL6J mice; type: in vivo
Experimental: The compounds to be tested were dissolved in 10% Solutol HS15+90% Saline, and vortexed by ultrasonic to dissolve.
Male SPF h-GLP1-R C57BL6J mice, 6-9 weeks old, weighing 20 g-25 g.
Upon arrival, animals were acclimated for 7 days before experiments. The body weight and random blood sugar of the animals were measured one day before administration. Animals were divided into 4 groups based on body weight and random blood glucose.
Mice were overnight fasted before IPGTT. Baseline fasting blood glucose and insulin level were measured before vehicle or compound dosing. 30 min post of compound dosing, glucose were injected intraperitoneally (2 g/kg, 10 ml/kg). Blood glucose levels were measured at −30, 0, 15, 30, 60, 120 min. Plasma 15 ul were collected at 0 and 15 min for insulin analysis by Rat/Mouse Insulin Elisa Kit.
AUC0-120min was the area under the blood glucose-time curve. Insulin change was the difference between 15 min and 0 min plasma insulin concentration. Statistical analysis of data was performed with Graphpad Prism 6, and the statistical method was one-way ANOVA Dunnett test. Compared with the vehicle group, p<0.05 was considered a significant difference. * means p<0.05, ** means p<0.01, *** means p<0.001.

[6] = mouse, plasma, male CD-1 mice, 1 mg/kg iv
[7] = mouse, plasma, male CD-1 mice, 1 mg/kg iv, read-out: AUC0-inf
[8] = mouse, plasma, male CD-1 mice, 5 mg/kg po, read-out: AUC0-inf
[9] = mouse, plasma, male CD-1 mice, 5 mg/kg po, read-out: Cmax
[10] = mouse, plasma, male CD-1 mice, 5 mg/kg po
[11] = cynomolgus monkey, plasma, male cynomolgus monkeys, 1 mg/kg iv
[12] = cynomolgus monkey, plasma, male cynomolgus monkeys, 1 mg/kg iv, read-out: AUC0-inf
[13] = cynomolgus monkey, plasma, male cynomolgus monkeys, 5 mg/kg po, read-out: AUC0-inf
[14] = cynomolgus monkey, plasma, male cynomolgus monkeys, 5 mg/kg po, read-out: Cmax
[15] = cynomolgus monkey, plasma, male cynomolgus monkeys, 5 mg/kg po
[16] = male cynomolgus monkeys, 5 mg/kg po
[17] = single oral dose of 100 mg/kg, IVGTT 2 hours after dosing
[18] = male cynomolgus monkeys, 1 mg/kg iv

Chain of GLP-1R (P43220 24-463): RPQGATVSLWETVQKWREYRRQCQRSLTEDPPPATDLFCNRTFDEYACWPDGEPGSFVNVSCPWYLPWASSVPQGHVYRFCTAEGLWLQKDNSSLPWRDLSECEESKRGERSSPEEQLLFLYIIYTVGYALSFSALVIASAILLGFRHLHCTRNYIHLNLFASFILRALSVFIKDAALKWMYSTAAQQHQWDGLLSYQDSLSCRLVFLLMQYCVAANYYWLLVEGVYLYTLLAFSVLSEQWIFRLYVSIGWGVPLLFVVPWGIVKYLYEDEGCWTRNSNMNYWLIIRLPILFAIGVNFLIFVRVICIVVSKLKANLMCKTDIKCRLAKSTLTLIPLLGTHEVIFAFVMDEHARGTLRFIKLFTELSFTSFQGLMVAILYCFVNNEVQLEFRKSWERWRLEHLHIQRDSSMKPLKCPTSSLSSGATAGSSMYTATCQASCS

EC50 [1] [pM]	Max activity [1] [%]	F ([2]; male CD-1 mice, 5 mg/kg po) [%]	clearance rate compared with PF-06882961 [2]	exposure compared with PF-06882961 [2]	clearance [2, 6] [mL/min/kg]	AUC(0-inf) [2, 7] [ng·h/mL]	half-life [2, 6] [h]	Vd [2, 6] [L/kg]	AUC(0-inf) [2, 8] [ng·h/mL]	Cmax [2, 9] [ng/mL]	half-life [2, 10] [h]	clearance [3, 11] [mL/min/kg]	AUC(0-inf) [3, 12] [ng·h/mL]	half-life [3, 11] [h]	Vd [3, 11] [L/kg]	AUC(0-inf) [3, 13] [ng·h/mL]	Cmax [3, 14] [ng/mL]	F [3, 16] [%]	Compound	blood glucose level in IVGTT [4, 17]	other results
193	129.3	20.7	lower clearance rates	higher exposure	12	1350	1	1	1760	515	3.2	7.26	2380	1.34	0.29	1240	235	10.4	O=C(O)c1ccc2nc(CN3CCC(Oc4cccc(COc5ccc(Cl)cc5F)n4)CC3)n(C[C@@H]3CCO3)c2c1 [Compound 49, (S)-2-((4-((6-((4-chloro-2-fluorophenoxy)methyl)pyridin-2-yl)oxy)piperidin-1-yl)methyl)-1-(oxetan-2-ylmethyl)-1H-benzo[d]imidazole-6-carboxylic acid]	significantly lower the blood glucose level	half-life [3, 15]: 4.01 h; clearance rate compared with PF-06882961 [3]: lower clearance rates; exposure compared with PF-06882961 [3]: higher exposure; half-life compared with PF-06882961 [3]: greater; blood glucose level in IVGTT ([4]; 60 mg/kg po dose group): significant hypoglycemic effect; effect on blood glucose compared with PF-06882961 [4]: slightly more effective
149	111.5	32.7	lower clearance rates	higher exposure	26.2	637	1.5	1.3	1040	483	1.7	12	1420	2.2	0.4	614	214	8.6	N#Cc1ccc(OCc2cccc(OC3CCN(Cc4nc5ccc(C(=O)O)cc5n4C[C@@H]4CCO4)CC3)n2)c(F)c1 [Compound 55, (S)-2-((4-((6-((4-cyano-2-fluorophenoxy)methyl)pyridin-2-yl)oxy)piperidin-1-yl)methyl)-1-(oxetan-2-ylmethyl)-1H-benzo[d]imidazole-6-carboxylic acid]	significantly lower the blood glucose level	half-life [3, 15]: 5.4 h; clearance rate compared with PF-06882961 [3]: lower clearance rates; exposure compared with PF-06882961 [3]: higher exposure; half-life compared with PF-06882961 [3]: greater; Insulin change (15 min minus 0 min plasma insulin) ([5]; 0.3 mpk po): significantly increase insulin secretion; AUC0-120min (area under the blood glucose-time curve) ([5]; 0.3 mpk po, compared with the vehicle group): significant difference compared with the vehicle group; blood glucose during IPGTT ([5]; single oral dose 0.3 mg/kg, glucose 2 g/kg ip 30 min after dosing): significantly reduced the blood glucose; effect on blood glucose compared with PF-06882961 [4]: equivalent
210	124.9	54.4	lower clearance rates	higher exposure	21.7	771	2.3	1.2	2100	1640	1	–	–	–	–	–	–	–	N#Cc1ccc(OCc2cccc(OC3CCN(Cc4nc5c(F)cc(C(=O)O)cc5n4C[C@@H]4CCO4)CC3)n2)c(F)c1 [Compound 56, (S)-2-((4-((6-((4-cyano-2-fluorophenoxy)methyl)pyridin-2-yl)oxy)piperidin-1-yl)methyl)-4-fluoro-1-(oxetan-2-ylmethyl)-1H-benzo[d]imidazole-6-carboxylic acid]	–	–
249	109.1	45.1	lower clearance rates	higher exposure	15	1140	1	1	2580	2190	1.4	–	–	–	–	–	–	–	O=C(O)c1cc(F)c2nc(CN3CCC(Oc4cccc(COc5ccc(Cl)cc5F)n4)CC3)n(C[C@@H]3CCO3)c2c1 [Compound C23, (S)-2-((4-((6-((4-chloro-2-fluorophenoxy)methyl)pyridin-2-yl)oxy)piperidin-1-yl)methyl)-4-fluoro-1-(oxetan-2-ylmethyl)-1H-benzo[d]imidazole-6-carboxylic acid]	–	–
–	–	19.8	–	–	–	–	–	–	–	–	–	–	–	–	–	–	–	5.9	N#Cc1ccc(COc2cccc(C3CCN(Cc4nc5ccc(C(=O)O)cc5n4C[C@@H]4CCO4)CC3)n2)c(F)c1 [PF-06882961, reference compound]	significantly lower the blood glucose level	AUC(0-inf) ([2]; male CD-1 mice, 1 mg/kg iv): 370 ng·h/mL; Cl ([2]; male CD-1 mice, 1 mg/kg iv): 45.1 mL/min/kg; T½ ([2]; male CD-1 mice, 1 mg/kg iv): 0.3 h; Vdss ([2]; male CD-1 mice, 1 mg/kg iv): 1 L/kg; AUC(0-inf) ([2]; male CD-1 mice, 5 mg/kg po): 366 ng·h/mL; Cmax ([2]; male CD-1 mice, 5 mg/kg po): 299 ng/mL; T½ ([2]; male CD-1 mice, 5 mg/kg po): 2.0 h; AUC(0-inf) [3, 18]: 1167 ng·h/mL; Cl [3, 18]: 14.4 mL/min/kg; T½ [3, 18]: 1.1 h; Vdss [3, 18]: 0.3 L/kg; AUC(0-inf) [3, 16]: 344 ng·h/mL; Cmax [3, 16]: 58.8 ng/mL; T½ [3, 16]: 2.8 h
